Here are results for four molecules from US8314142B2, “Dimers of artemisinin derivatives, preparation thereof and therapeutic use thereof” (Sanofi, priority 2006, dated 2012).

This test deals with HCT116 cells. The test is described as follows: Inhibition of cell proliferation of HCT116 cells (14C-thymidine incorporation, 96 hours). The settings on record: Homo sapiens, HCT-116, 14C-thymidine incorporation after 96 hours. The class given is cell-based. How it is done:
The products according to the invention have been the subject of pharmacological trials which make it possible to determine their antiproliferative activity. It was determined by measuring the inhibition of cell proliferation of HCT116 cells. The cells are inoculated in a cell culture medium at a concentration of 10 000 cells per well, in 0.17 ml of medium, and 20 μl of test product, at various concentrations, and 10 μl of Thymidine [methyl-14C] (100 μCi/ml—specific activity 47.90 mCi/mmol; NEN Technologies reference NEC568 batch 3550-001) are added, and then the cells are incubated at 37° C. and 5% CO2.
Medium used for the culture of HCT116 cells: DMEM medium 2 mM L-glutamine, 200 IU/ml penicillin, 200 μg/ml streptomycin and 10% (V/V) fetal calf serum (Life Technologies).
After 96 hours, the incorporation of ^14C-thymidine is counted in a liquid scintillation counter 1450 Microbeta Wallac Trilux. The results R are expressed in cpm (counts per minute) and converted to percentage of growth inhibition GI % by first subtracting the mean of the number of cpm of the wells without cells B and then by dividing by the number of cpm of the wells of the untreated cells C comprising 20 μl of medium for dilution of the product containing 1% of ethanol (GI %=(R−B)×100/C %).
The IC50 values are calculated with the aid of the equation 205 of the XLFit software (IDBS company, UK) by nonlinear regression analysis using the Marquardt algorithm (Donald W. MARQUARDT, J. Soc. industry appl., vol. 11, No. 2, June, 1963).

Usually IC50 stands for the point on the concentration scale where inhibition reaches its midpoint. In turn, `C[C@@H]1CC[C@H]2[C@@H](C)[C@](OCCSCCO[C@@]3(C(F)(F)F)O[C@@H]4O[C@]5(C)CC[C@H]6[C@H](C)CC[C@@H]([C@H]3C)[C@@]46OO5)(C(F)(F)F)O[C@@H]3O[C@@]4(C)CC[C@@H]1[C@]32OO4` [EX1] showed a half-inhibitory concentration (IC50) of 47 nM.

Molecule `C[C@@H]1CC[C@H]2[C@@H](C)[C@](OCC[S+]([O-])CCO[C@@]3(C(F)(F)F)O[C@@H]4O[C@]5(C)CC[C@H]6[C@H](C)CC[C@@H]([C@H]3C)[C@@]46OO5)(C(F)(F)F)O[C@@H]3O[C@@]4(C)CC[C@@H]1[C@]32OO4` [EX2] showed an IC50 of 23 nM.

Take `C[C@@H]1CC[C@H]2[C@@H](C)[C@](OCCS(=O)(=O)CCO[C@@]3(C(F)(F)F)O[C@@H]4O[C@]5(C)CC[C@H]6[C@H](C)CC[C@@H]([C@H]3C)[C@@]46OO5)(C(F)(F)F)O[C@@H]3O[C@@]4(C)CC[C@@H]1[C@]32OO4` [EX3, (3S,5aS,6R,8aS,9R,10R,12R,12aR,3′S,5′aS,6′R,8′aS,-9′R,10′R,12′R,12′aR)-10,10′-[sulfonylbis(2,1-ethanediyloxy)]bis[decahydro-3,6,9-trimethyl-10-tri-fluoromethyl)-3,12-epoxy-12H-pyrano[4,3-j]-1,2-benzodioxepine]: half-maximal inhibition (IC50) was put at 21 nM.

Consider `C[C@@H]1CC[C@H]2[C@@H](C)[C@](OCCN(C)CCO[C@@]3(C(F)(F)F)O[C@@H]4O[C@@]5(C)CC[C@H]6[C@H](C)CC[C@@H]([C@H]3C)[C@@]46OO5)(C(F)(F)F)O[C@@H]3O[C@@]4(C)CC[C@@H]1[C@]32OO4` [EX8, 2-[[(3R,5aS,6R,8aS,9R,10R,12R,12aR)-decahydro-3,6,9-trimethyl-10-(trifluoromethyl)-3,12-epoxy-12H-pyrano[4,3-j]-1,2-benzodioxepin-10-yl]oxy]-N-[2-[[(3R,5aS,6R,8aS,9R,10R,12R,12aR)-decahydro-3,6,9-trimethyl-10-(trifluoromethyl)-3,12-epoxy-12H-pyrano[4,3-j]-1,2-benzodioxepin-10-yl]oxy]ethyl]-N-methylethanamine], for which half-maximal inhibition (IC50) required 30 nM.
